In patent US10329294B2, “Pyrazolopyrimidine inhibitors of IRAK4 activity” (MERCK SHARP & DOHME CORP., priority 2015, dated 2019):
Where a name gives a salt, the structure may show the parent alone.

Biological target: IRAK4 (Homo sapiens (Human), UniProt Q9NWZ3)
Assay: IRAK4 Kinase Assay
Format: biochemical
Settings: IMAP fluorescence polarization, 0.5 nM GST tagged IRAK4, 100 μM ATP, 30 minutes at 25° C.; read-out: IRAK4 IC50
Protocol: The kinase activity of IRAK4 is determined by its ability to catalyze the phosphorylation of a fluorescent polypeptide substrate. The extent of phosphorylation is measured using the IMAP technology (Molecular Devices) where the phosphorylated fluorescent substrate binds to the large M(III)-based nanoparticles which reduces the rotational speed of the substrate and thus increases its fluorescent polarization (FP).
20 μL reaction mixture contains 10 mM TriHCl, pH 7.2, 0.5 nM GST tagged IRAK4 (SignalChem), 100 nM fluorescent peptide substrate (RP7030, Molecular Devices), 100 μM ATP, 1 mM DDT, 1 mM MgCl2, and 0.01% Tween 20. The reaction is initiated by the addition of ATP. After incubation for 30 minutes at 25° C., 60 μL of Progressive IMAP Reagent (Molecular Devices) is added to stop the reaction. Change in RP7030's FP is determined by a FP reader (Analyst HT, LJL BioSystems).

Sequence of IRAK4 (Q9NWZ3 whole entry): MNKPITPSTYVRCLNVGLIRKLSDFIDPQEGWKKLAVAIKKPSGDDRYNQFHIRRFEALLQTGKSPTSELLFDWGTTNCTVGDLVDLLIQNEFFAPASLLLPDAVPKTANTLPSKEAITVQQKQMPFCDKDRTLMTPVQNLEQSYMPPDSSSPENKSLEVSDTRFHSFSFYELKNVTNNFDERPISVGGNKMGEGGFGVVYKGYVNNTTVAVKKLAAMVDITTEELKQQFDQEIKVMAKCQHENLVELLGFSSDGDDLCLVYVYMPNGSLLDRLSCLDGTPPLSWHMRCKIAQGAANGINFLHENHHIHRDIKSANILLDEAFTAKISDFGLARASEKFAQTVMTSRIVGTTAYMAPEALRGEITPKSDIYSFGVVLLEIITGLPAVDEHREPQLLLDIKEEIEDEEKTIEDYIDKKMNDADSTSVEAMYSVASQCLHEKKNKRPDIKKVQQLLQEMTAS

| SMILES | IC50 [nM] |
| --- | --- |
| Cn1cc(NC(=O)c2cnn3ccc(N[C@@H]4CNCC[C@@H]4F)nc23)c(C(F)(F)F)n1 (single isomer, unassigned) [Example 230, 5-{[(3R,4S)- or (3S,4R)-4-fluoropiperidin-3-yl]amino}-N-[1-methyl-3-(trifluoromethyl)-1H-pyrazol-4-yl]pyrazolo[1,5-a]pyrimidine-3-carboxamide] | 0.5 |
| Cn1cc(NC(=O)c2cnn3ccc(N[C@H]4CNCC[C@H]4F)nc23)c(C(F)(F)F)n1 (single isomer, unassigned) [Example 231, 5-{[(3R,4S)- or (3S,4R)-4-fluoropiperidin-3-yl]amino}-N-[1-methyl-3-(trifluoromethyl)-1H-pyrazol-4-yl]pyrazolo[1,5-a]pyrimidine-3-carboxamide] | 47 |
| Cn1cc(NC(=O)c2cnn3ccc(N[C@@H]4CNCC[C@H]4F)nc23)c(C(F)(F)F)n1 (single isomer, unassigned) [Example 232, 5-{[(3R,4R)- or (3S,4S)-4-fluoropiperidin-3-yl]amino}-N-[1-methyl-3-(trifluoromethyl)-1H-pyrazol-4-yl]pyrazolo[1,5-a]pyrimidine-3-carboxamide] | 13 |
| Cn1cc(NC(=O)c2cnn3ccc(N[C@H]4CNCC[C@@H]4F)nc23)c(C(F)(F)F)n1 (single isomer, unassigned) [Example 233, 5-{[(3R,4R)- or (3S,4S)-4-fluoropiperidin-3-yl]amino}-N-[1-methyl-3-(trifluoromethyl)-1H-pyrazol-4-yl]pyrazolo[1,5-a]pyrimidine-3-carboxamide] | 0.5 |
| Cn1cc(NC(=O)c2cnn3ccc(NC4CNCCC4F)nc23)c(C(F)F)n1 (single isomer, unassigned) [Example 234, N-[3-(difluoromethyl)-1-methyl-1H-pyrazol-4-yl]-5-[(3R or S, 4R or S-4-fluoropiperidin-3-yl)amino]pyrazolo[1,5-a]pyrimidine-3-carboxamide] | 5 |
| Cn1cc(NC(=O)c2cnn3ccc(N[C@H]4CNCC(F)(F)C4)nc23)c(C(F)F)n1 (single isomer, unassigned) [Example 235, N-[3-(difluoromethyl)-1-methyl-1H-pyrazol-4-yl]-5-{[(3S)- or (3R)-5,5-difluoropiperidin-3-yl]amino}pyrazolo[1,5-a]pyrimidine-3-carboxamide] | 0.7 |
| Cn1cc(NC(=O)c2cnn3ccc(NC4CNCCC4F)nc23)c(C(F)F)n1 (single isomer, unassigned) [Example 236, N-[3-(difluoromethyl)-1-methyl-1H-pyrazol-4-yl]-5-[(3R or S, 4R or S-4-fluoropiperidin-3-yl)amino]pyrazolo[1,5-a]pyrimidine-3-carboxamide] | 0.6 |
| Cn1cc(NC(=O)c2cnn3ccc(NC4CNCCC4F)nc23)c(C(F)F)n1 (single isomer, unassigned) [Example 237, N-[3-(difluoromethyl)-1-methyl-1H-pyrazol-4-yl]-5-[(3R or S, 4R or S-4-fluoropiperidin-3-yl)amino]pyrazolo[1,5-a]pyrimidine-3-carboxamide] | 0.6 |
| Cn1cc(NC(=O)c2cnn3ccc(N4C[C@@H]5CNC[C@H]4C5)nc23)c(C(F)F)n1 (single isomer, unassigned) [Example 239, 5-[(1S,5R)- or (1R,5S)-3,6-diazabicyclo[3.2.1]oct-6-yl]-N-[3-(difluoromethyl)-1-methyl-1H-pyrazol-4-yl]pyrazolo[1,5-a]pyrimidine-3-carboxamide] | 3 |
| Cn1cc(NC(=O)c2cnn3ccc(N4C[C@H]5CNC[C@@H]4C5)nc23)c(C(F)F)n1 (single isomer, unassigned) [Example 240, 5-[(1S,5R)- or (1R,5S)-3,6-diazabicyclo[3.2.1]oct-6-yl]-N-[3-(difluoromethyl)-1-methyl-1H-pyrazol-4-yl]pyrazolo[1,5-a]pyrimidine-3-carboxamide] | 43 |
| Cn1cc(NC(=O)c2cnn3ccc(NC4CNCCC4F)nc23)c(C(F)F)n1 (single isomer, unassigned) [Example 241, N-[3-(difluoromethyl)-1-methyl-1H-pyrazol-4-yl]-5-[(3R or S, 4R or S-4-fluoropiperidin-3-yl)amino]pyrazolo[1,5-a]pyrimidine-3-carboxamide] | 3 |
| Cn1cc(NC(=O)c2cnn3ccc(N[C@H]4CNCCC4(F)F)nc23)c(C(F)F)n1 (single isomer, unassigned) [Example 242, N-[(R or S)-3-(difluoromethyl)-1-methyl-1H-pyrazol-4-yl]-5-[(4,4-difluoropiperidin-3-yl)amino]pyrazolo[1,5-a]pyrimidine-3-carboxamide trifluoroacetate] | 2 |
| Cn1cc(NC(=O)c2cnn3ccc(N[C@H]4CNCCC4(F)F)nc23)c(C(F)(F)F)n1 (single isomer, unassigned) [Example 243, 5-[(R or S)-(4,4-difluoropiperidin-3-yl)amino]-N-[1-methyl-3-(trifluoromethyl)-1H-pyrazol-4-yl]pyrazolo[1,5-a]pyrimidine-3-carboxamide trifluoroacetate] | 0.5 |
| Cn1cc(NC(=O)c2cnn3ccc(N[C@H]4CNCCC4(F)F)nc23)c(C(F)F)n1 (single isomer, unassigned) [Example 244, N-[(R or S)-3-(difluoromethyl)-1-methyl-1H-pyrazol-4-yl]-5-[(4,4-difluoropiperidin-3-yl)amino]pyrazolo[1,5-a]pyrimidine-3-carboxamide trifluoroacetate] | 0.5 |
| Cn1cc(NC(=O)c2cnn3ccc(N[C@H]4CNCCC4(F)F)nc23)c(C(F)(F)F)n1 (single isomer, unassigned) [Example 245, 5-[(R or S)-(4,4-difluoropiperidin-3-yl)amino]-N-[1-methyl-3-(trifluoromethyl)-1H-pyrazol-4-yl]pyrazolo[1,5-a]pyrimidine-3-carboxamide trifluoroacetate] | 8 |
| Cn1cc(NC(=O)c2cnn3ccc(NC4CCCCC4)nc23)cn1 [Example 3, 5-(cyclohexylamino)-N-(1-methyl-1H-pyrazol-4-yl)pyrazolo[1,5-a]pyrimidine-3-carboxamide trifluoroacetate] | 237 |
| Cn1cc(NC(=O)c2cnn3ccc(N4CCN(CC5CC5)CC4)nc23)c(C(F)(F)F)n1 [Example 6, 5-[4-(cyclopropylmethyl)piperazin-1-yl]-N-[1-methyl-3-(trifluoromethyl)-1H-pyrazol-4-yl]pyrazolo[1,5-a]pyrimidine-3-carboxamide] | 681 |
| Cn1cc(NC(=O)c2cnn3ccc(NC4CCNCC4)nc23)c(C(F)(F)F)n1 [Example 7, N-[1-methyl-3-(trifluoromethyl)-1H-pyrazol-4-yl]-5-(piperidin-4-ylamino)pyrazolo[1,5-a]pyrimidine-3-carboxamide trifluoroacetate] | 39 |
| Cn1cc(NC(=O)c2cnn3ccc(N4CCCNCC4)nc23)c(C(F)(F)F)n1 [Example 8, 5-(1,4-diazepan-1-yl)-N-[1-methyl-3-(trifluoromethyl)-1H-pyrazol-4-yl]pyrazolo[1,5-a]pyrimidine-3-carboxamide trifluoroacetate] | 66 |
| Cn1cc(NC(=O)c2cnn3ccc(N[C@@H]4CCCNC4)nc23)c(C(F)(F)F)n1 [Example 9, N-[1-methyl-3-(trifluoromethyl)-1H-pyrazol-4-yl]-5-[(3R)-piperidin-3-ylamino]pyrazolo[1,5-a]pyrimidine-3-carboxamide trifluoroacetate] | 0.5 |
| CCN1CCCN(c2ccn3ncc(C(=O)Nc4cn(C)nc4C(F)(F)F)c3n2)CC1 [Example 10, 5-(4-ethyl-1,4-diazepan-1-yl)-N-[1-methyl-3-(trifluoromethyl)-1H-pyrazol-4-yl]pyrazolo[1,5-a]pyrimidine-3-carboxamide] | 1100 |
| Cn1cc(NC(=O)c2cnn3ccc(N4CC5CCC4CN5)nc23)c(C(F)(F)F)n1 (stereo not shown) [Example 11, 5-(2,5-diazabicyclo[2.2.2]oct-2-yl)-N-[1-methyl-3-(trifluoromethyl)-1H-pyrazol-4-yl]pyrazolo[1,5-a]pyrimidine-3-carboxamide hydrochloride] | 28 |
| Cn1cc(NC(=O)c2cnn3ccc(NC4CCCCNC4)nc23)c(C(F)(F)F)n1 (stereo not shown) [Example 12, 5-(azepan-3-ylamino)-N-[1-methyl-3-(trifluoromethyl)-1H-pyrazol-4-yl]pyrazolo[1,5-a]pyrimidine-3-carboxamide hydrochloride] | 6 |
| Cn1cc(NC(=O)c2cnn3ccc(N4CC5CC4CN5)nc23)c(C(F)(F)F)n1 (stereo not shown) [Example 13, 5-(2,5-diazabicyclo[2.2.1]hept-2-yl)-N-[1-methyl-3-(trifluoromethyl)-1H-pyrazol-4-yl]pyrazolo[1,5-a]pyrimidine-3-carboxamide hydrochloride] | 179 |
| Cn1cc(NC(=O)c2cnn3ccc(N4CCNCC5(CC5)C4)nc23)c(C(F)(F)F)n1 [Example 14, 5-(5,8-diazaspiro[2.6]non-5-yl)-N-[1-methyl-3-(trifluoromethyl)-1H-pyrazol-4-yl]pyrazolo[1,5-15a]pyrimidine-3-carboxamide trifluoroacetate] | 16 |
| Cn1cc(NC(=O)c2cnn3ccc(N4CCNC(C(F)(F)F)C4)nc23)c(C(F)(F)F)n1 (stereo not shown) [Example 15, N-[1-methyl-3-(trifluoromethyl)-1H-pyrazol-4-yl]-5-(3-(trifluoromethyl)piperazin-1-yl]pyrazolo[1,5-a]pyrimidine-3-carboxamide] | 113 |
| Cn1cc(NC(=O)c2cnn3ccc(N4CCNC(C(F)F)C4)nc23)c(C(F)(F)F)n1 (stereo not shown) [Example 16, 5-[3-(difluoromethyl)piperazin-1-yl]-N-[1-methyl-3-(trifluoromethyl)-1H-pyrazol-4-yl]pyrazolo[1,5-a]pyrimidine-3-carboxamide formate] | 49 |
| Cn1cc(NC(=O)c2cnn3ccc(NC4CCCNCC4)nc23)c(C(F)(F)F)n1 (stereo not shown) [Example 17, 5-(azepan-4-ylamino)-N-[1-methyl-3-(trifluoromethyl)-1H-pyrazol-4-yl]pyrazolo[1,5-a]pyrimidine-3-carboxamide hydrochloride] | 14 |
